Molecular target: T1, γ-secretase (Homo sapiens, UniProt P49768)
T1 construct: uses a HEK293 membrane fraction as a source of γ-secretase; endogenous in cells; host or cells: HEK293 (microsomal membrane fraction, solubilised in 0.25% CHAPSO)
Experiment: in vitro assay of γ-secretase activity (HEK293 membrane fraction, recombinant APP substrate, Abeta ELISA)
Assay type: biochemical
Conditions: γ-secretase inhibition; HEK293 membrane fraction solubilized in 0.25% CHAPSO, recombinant human APP C-terminal 100 amino acids substrate, Abeta detected by ELISA
From the text: Description of 1γ-Secretase Assay The activity of test compounds can be evaluated in assays which measure the proteolytic cleavage of suitable substrates by γ-secretase activity. These can be cellular assays where e.g., a substrate of the γ-secretase is fused in its cytoplasmic domain to a transcription factor. Cells are transfected with this fusion gene and a reporter gene, e.g., firefly luciferase, which expression is enhanced by the transcription factor. Cleavage of the fused substrate by γ-secretase will lead to expression of the reporter gene which can be monitored in appropriate assays. The γ-secretase activity can also be determined in cell-free in vitro assays where e.g., a cell lysate containing the γ-secretase complex is incubated with a suitable APP-derived substrate which is cleaved to the Abeta peptides. The amount of produced peptides can be determined with specific ELISA assays. Cell lines of neuronal origin secrete Abeta peptides which can be measured with the specific ELISA assay. Treatment with compounds which inhibit γ-secretase leads to a reduction of secreted Abeta thus providing a measure of inhibition. The in vitro assay of γ-secretase activity uses a HEK293 membrane fraction as a source of γ-secretase and a recombinant APP substrate. Latter consist of the C-terminal 100 amino acids of human APP fused to a 6× Histidin tail for purification which is expressed in E. coli in a regulatable expression vector, e.g. pEt15. This recombinant protein corresponds to the truncated APP fragment which results after […] of the extracellular domain and which constitutes the γ-secretase substrate. The assay principle is described in Li Y M et al, PNAS 97(11), 6138-6143 (2000). Hek293 cells are mechanically disrupted and the microsomal fraction is isolated by differential centrifugation. The membranes are solubilized in detergent (0.25% CHAPSO) and incubated with the APP substrate. The Abeta peptides which are produced by γ-secretase cleavage of the substrate are detected by specific ELISA assays as described (Brockhaus M et al, Neuroreport 9(7), 1481-1486 (1998).

| SMILES | IC50 [nM] |
| --- | --- |
| CCOC(C(=O)NCC(F)(F)C(F)(F)F)C(=O)N[C@@H]1C(=O)N(CCO)c2ccccc2-c2ccccc21 (single isomer, unassigned; epimer a) [Example 18, (S or R)-2-Ethoxy-N—[(S)-5-(2-hydroxy-ethyl)-6-oxo-6,7-dihydro-5H-dibenzo[b,d]azepin-7-yl]-N′-(2,2,3,3,3-pentafluoro-propyl)-malonamide, epimer A] | 7 |
| COCCN1C(=O)[C@@H](NC(=O)C(C)(O)C(=O)NCC(F)(F)C(F)(F)F)c2ccccc2-c2ccccc21 (single isomer, unassigned; epimer a) [Example 45] | 9 |
| CC(O)(C(=O)NCCC(F)(F)F)C(=O)N[C@@H]1C(=O)N(CCO)c2ccccc2-c2ccccc21 (single isomer, unassigned; epimer a) [Example 65, (R or S)-2-Hydroxy-N—[(S)-5-(2-hydroxy-ethyl)-6-oxo-6,7-dihydro-5H-dibenzo[b,d]azepin-7-yl]-2-methyl-N′-(3,3,3-trifluoro-propyl)-malonamide, epimer A] | 39 |
| CCOC(C(=O)NCC(F)(F)C(F)(F)F)C(=O)N[C@@H]1C(=O)N(CCO)c2ccccc2-c2ccccc21 (single isomer, unassigned; epimer b) [Example 19, [R or S]2-Ethoxy-N—[(S)-5-(2-hydroxy-ethyl)-6-oxo-6,7-dihydro-5H-dibenzo[b,d]azepin-7-yl]-N′-(2,2,3,3,3-pentafluoro-propyl)-malonamide, epimer B] | 4 |
| COC(=O)CN1C(=O)[C@@H](NC(=O)C(C)C(=O)NCC(F)(F)C(F)(F)F)c2ccccc2-c2ccccc21 (stereo partly drawn) [Example 1, {(S)-6-Oxo-7-[2-(2,2,3,3,3-pentafluoro-propylcarbamoyl)-propionylamino]-6,7-dihydro-dibenzo[b,d]azepin-5-yl}-acetic acid methyl ester] | 10 |
| CC(C(=O)NCC(F)(F)C(F)(F)F)C(=O)N[C@@H]1C(=O)N(CCOCc2ccccc2)c2ccccc2-c2ccccc21 (stereo partly drawn) [Example 2, N—[(S)-5-(2-Benzyloxy-ethyl)-6-oxo-6,7-dihydro-5H-dibenzo[b,d]azepin-7-yl]-2-methyl-N′-(2,2,3,3,3-pentafluoro-propyl)-malonamide] | 6 |
| CC(C)(C(=O)NCC(F)(F)C(F)(F)F)C(=O)N[C@@H]1C(=O)N(CCOCc2ccccc2)c2ccccc2-c2ccccc21 [Example 4, N—[(S)-5-(2-Benzyloxy-ethyl)-6-oxo-6,7-dihydro-5H-dibenzo[b,d]azepin-7-yl]-2,2-dimethyl-N′-(2,2,3,3,3-pentafluoro-propyl)-malonamide] | 9 |
| C[C@H](OC(=O)NCC(F)(F)C(F)(F)F)C(=O)N[C@@H]1C(=O)N(CCOCc2ccccc2)c2ccccc2-c2ccccc21 [Example 5, (2,2,3,3,3-Pentafluoro-propyl)-carbamic acid (S)-1-[(S)-5-(2-benzyloxy-ethyl)-6-oxo-6,7-dihydro-5H-dibenzo[b,d]azepin-7-ylcarbamoyl]-ethyl ester] | 11 |
| O=C(CC(=O)N[C@@H]1C(=O)N(CCOCc2ccccc2)c2ccccc2-c2ccccc21)NCC(F)(F)C(F)(F)F [Example 7, N—[(S)-5-(2-Benzyloxy-ethyl)-6-oxo-6,7-dihydro-5H-dibenzo[b,d]azepin-7-yl]-N′-(2,2,3,3,3-pentafluoro-propyl)-malonamide] | 22 |
| C[C@H](OC(=O)NCC(F)(F)C(F)(F)F)C(=O)N[C@@H]1C(=O)N(CCO)c2ccccc2-c2ccccc21 [Example 8, (2,2,3,3,3-Pentafluoro-propyl)-carbamic acid (S)-1-[(S)-5-(2-hydroxy-ethyl)-6-oxo-6,7-dihydro-5H-dibenzo[b,d]azepin-7-ylcarbamoyl]-ethyl ester] | 6 |
| O=C(CC(=O)N[C@@H]1C(=O)N(CCO)c2ccccc2-c2ccccc21)NCC(F)(F)C(F)(F)F [Example 9, N—[(S)-5-(2-Hydroxy-ethyl)-6-oxo-6,7-dihydro-5H-dibenzo[b,d]azepin-7-yl]-N′-(2,2,3,3,3-pentafluoro-propyl)-malonamide] | 19 |
| COC(C(=O)NCC(F)(F)C(F)(F)F)C(=O)N[C@@H]1C(=O)N(CCOCc2ccccc2)c2ccccc2-c2ccccc21 (stereo partly drawn) [Example 10, N—[(S)-5-(2-Benzyloxy-ethyl)-6-oxo-6,7-dihydro-5H-dibenzo[b,d]azepin-7-yl]-2-methoxy-N′-(2,2,3,3,3-pentafluoro-propyl)-malonamide] | 49 |
| COC(C(=O)NCC(F)(F)C(F)(F)F)C(=O)N[C@@H]1C(=O)N(CCO)c2ccccc2-c2ccccc21 (stereo partly drawn) [Example 11, N—[(S)-5-(2-Hydroxy-ethyl)-6-oxo-6,7-dihydro-5H-dibenzo[b,d]azepin-7-yl]-2-methoxy-N′-(2,2,3,3,3-pentafluoro-propyl)-malonamide] | 7 |
| CC(O)(C(=O)NCC(F)(F)C(F)(F)F)C(=O)N[C@@H]1C(=O)N(CCOCc2ccccc2)c2ccccc2-c2ccccc21 (stereo partly drawn) [Example 12, N—[(S)-5-(2-Benzyloxy-ethyl)-6-oxo-6,7-dihydro-5H-dibenzo[b,d]azepin-7-yl]-2-hydroxy-2-methyl-N′-(2,2,3,3,3-pentafluoro-propyl)-malonamide] | 10 |
| CC(F)(C(=O)NCC(F)(F)C(F)(F)F)C(=O)N[C@@H]1C(=O)N(CCOCc2ccccc2)c2ccccc2-c2ccccc21 (stereo partly drawn) [Example 13, N—[(S)-5-(2-Benzyloxy-ethyl)-6-oxo-6,7-dihydro-5H-dibenzo[b,d]azepin-7-yl]-2-fluoro-2-methyl-N′-(2,2,3,3,3-pentafluoro-propyl)-malonamide] | 10 |
| CCOC(C(=O)NCC(F)(F)C(F)(F)F)C(=O)N[C@@H]1C(=O)N(CCOCc2ccccc2)c2ccccc2-c2ccccc21 (stereo partly shown) [Example 14] | 8 |

These reach a lower IC50. Values come first.

| IC50 [nM] | SMILES |
| --- | --- |
| 3 | CC(O)(C(=O)NCC(F)(F)C(F)(F)F)C(=O)N[C@@H]1C(=O)N(CCO)c2ccccc2-c2ccccc21 (single isomer, unassigned; epimer a) [Example 20] |
| 3 | CC(F)(C(=O)NCC(F)(F)C(F)(F)F)C(=O)N[C@@H]1C(=O)N(CCO)c2ccccc2-c2ccccc21 (stereo partly drawn) [Example 16, 2-Fluoro-N—[(S)-5-(2-hydroxy-ethyl)-6-oxo-6,7-dihydro-5H-dibenzo[b,d]azepin-7-yl]-2-methyl-N′-(2,2,3,3,3-pentafluoro-propyl)-malonamide] |
| 2 | COCCN1C(=O)[C@@H](NC(=O)C(C)(O)C(=O)NCC(F)(F)C(F)(F)F)c2ccccc2-c2ccccc21 (single isomer, unassigned; epimer b) [Example 46] |
| 2 | CC(C)(C(=O)NCC(F)(F)C(F)(F)F)C(=O)N[C@@H]1C(=O)N(CCO)c2ccccc2-c2ccccc21 [Example 6, N—[(S)-5-(2-Hydroxy-ethyl)-6-oxo-6,7-dihydro-5H-dibenzo[b,d]azepin-7-yl]-2,2-dimethyl-N′-(2,2,3,3,3-pentafluoro-propyl)-malonamide] |
| 1 | CC(O)(C(=O)NCC(F)(F)C(F)(F)F)C(=O)N[C@@H]1C(=O)N(CCO)c2ccccc2-c2ccccc21 (single isomer, unassigned; epimer b) [Example 21] |
| 1 | CC(O)(C(=O)NCCC(F)(F)C(F)(F)F)C(=O)N[C@@H]1C(=O)N(CCO)c2ccccc2-c2ccccc21 (single isomer, unassigned; epimer b) [Example 62, (S or R)-2-Hydroxy-N—[(S)-5-(2-hydroxy-ethyl)-6-oxo-6,7-dihydro-5H-dibenzo[b,d]azepin-7-yl]-2-methyl-N′-(3,3,4,4,4-pentafluoro-butyl)-malonamide, epimer B] |
| 1 | CC(O)(C(=O)NCCC(F)(F)F)C(=O)N[C@@H]1C(=O)N(CCO)c2ccccc2-c2ccccc21 (single isomer, unassigned; epimer b) [Example 66, (S or R)-2-Hydroxy-N—[(S)-5-(2-hydroxy-ethyl)-6-oxo-6,7-dihydro-5H-dibenzo[b,d]azepin-7-yl]-2-methyl-N′-(3,3,3-trifluoro-propyl)-malonamide, epimer B] |
| 1 | CC(C(=O)NCC(F)(F)C(F)(F)F)C(=O)N[C@@H]1C(=O)N(CCO)c2ccccc2-c2ccccc21 (stereo partly drawn) [Example 3, N—[(S)-5-(2-Hydroxy-ethyl)-6-oxo-6,7-dihydro-5H-dibenzo[b,d]azepin-7-yl]-2-methyl-N ′-(2,2,3,3,3-pentafluoro-propyl)-malonamide] |
| 1 | CC(O)(C(=O)NCC(F)(F)C(F)(F)F)C(=O)N[C@@H]1C(=O)N(CCO)c2ccccc2-c2ccccc21 (stereo partly drawn) [Example 15, 2-Hydroxy-N—[(S)-5-(2-hydroxy-ethyl)-6-oxo-6,7-dihydro-5H-dibenzo[b,d]azepin-7-yl]-2-methyl-N′-(2,2,3,3,3-pentafluoro-propyl)-malonamide] |
